Source: patent US20250195521A1 (Revolution Medicines, Inc., priority 2020, published 2025)
pIC50: −log10 of the molar value. “And” between values parts separate entries of the source, which are not always exact repeats. Equal values may be shown once.

How the values were obtained:
[1] = biological target: K-Ras G12C(GMP-PNP) binding to BRAF RBD (Homo sapiens (Human), UniProt P01116+P62937, G12C); test: Disruption of BRAF RBD interaction with K-Ras (FRET / MOA assay), K-Ras G12C; format: biochemical; settings: read-out: KRAS G12C FRET IC50
Summary of the method: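 TR-FRET readout: after 3 h compound incubation at 25 °C, anti-His Eu and anti-GST allophycocyanin (10 and 50 nM final) added for a further 1.5 h. Dilution series was 10-point, 3-fold, top 30 μM final. Ras–cyclophilin A ternary complex formation blocks the BRAF RBD interaction; IC50 derived from reduced FRET ratio relative to DMSO.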

[2] = biological target: NRAS WT (Homo sapiens (Human), UniProt P01111+P62937); test: Ras-Raf disruption/FRET/MOA assay (BRAF RBD, Cyclophilin A); format: biochemical
Summary of the method: (§1)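 25 μM tagless Cyclophilin A, 12.5 nM His6-Ras-GMPPNP and 50 nM GST-BRAF RBD in HEPES pH 7.3 buffer with 5 mM MgCl2, with compound (10-point 3-fold series from 30 μM final) for 3 h at 25 °C. Anti-His Eu and anti-GST APC then added for 1.5 h. IC50 from TR-FRET ratio decrease versus DMSO.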

[3] = biological target: KRAS Q61H (Homo sapiens (Human), UniProt P01116+P62937, Q61H); test: as above; format: biochemical
Summary of the method: (§2)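 TR-FRET read after 1.5 h with 10 nM anti-His Eu-W1024 and 50 nM anti-GST APC, following 3 h at 25 °C of GMPPNP-loaded His6-Ras (12.5 nM), GST-BRAF RBD (50 nM) and Cyclophilin A (25 μM) with compound from 30 μM final, 10 points, 3-fold. IC50 reported; pH 7.3 HEPES, 100 mM NaCl.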

[4] = biological target: NRAS G12C (Homo sapiens (Human), UniProt P01111+P62937, G12C); test: as above; format: biochemical; settings: read-out: NRAS G12C FRET data IC50
Summary of the method: as §1

[5] = biological target: KRAS G12D (Homo sapiens (Human), UniProt P01116+P62937, G12D); test: as above; format: biochemical; settings: read-out: KRAS G12D FRET IC50
Summary of the method: as §2

[6] = biological target: KRAS G13D (Homo sapiens (Human), UniProt P01116+P62937, G13D); test: as above; format: biochemical; settings: read-out: KRAS G13D FRET data IC50
Summary of the method: as §2

[7] = biological target: NRAS Q61R (Homo sapiens (Human), UniProt P01111+P62937, Q61R); test: as above; format: biochemical
Summary of the method: as §1

[8] = biological target: KRAS G12C (Homo sapiens (Human), UniProt P01116+P62937, G12C); test: as above; format: biochemical; settings: read-out: KRAS G12C FRET IC50
Summary of the method: as §2

[9] = biological target: KRAS G12S (Homo sapiens (Human), UniProt P01116+P62937, G12S); test: as above; format: biochemical; settings: read-out: KRAS G12S FRET IC50
Summary of the method: as §2

[10] = biological target: KRAS WT (Homo sapiens (Human), UniProt P01116+P62937); test: as above; format: biochemical; settings: read-out: KRAS WT FRET data IC50
Summary of the method: as §2

[11] = biological target: KRAS G12V (Homo sapiens (Human), UniProt P01116+P62937, G12V); test: as above; format: biochemical; settings: read-out: KRAS G12V FRET IC50
Summary of the method: as §2

[12] = biological target: KRAS G13C (Homo sapiens (Human), UniProt P01116+P62937, G13C); test: as above; format: biochemical; settings: read-out: KRAS G13C FRET IC50
Summary of the method: as §2

[13] = biological target: NRAS Q61K (Homo sapiens (Human), UniProt P01111+P62937, Q61K); test: as above; format: biochemical
Summary of the method: as §1

[14] = tested on: NCI-H358 (K-Ras G12C); test: CellTiter-Glo cell viability assay, NCI-H358; format: cell-based, human; settings: Homo sapiens, NCI-H358, 120 h, 5-day treatment; read-out: H358 Cell Viability assay data (K-Ras G12C, IC50)
Summary of the method: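 Five-day compound treatment of NCI-H358 cells, then CellTiter-Glo luminescence, percent of DMSO, four-parameter logistic fit.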

[15] = tested on: Capan-1 cells (K-Ras G12V); test: CellTiter-Glo cell viability, Capan-1; format: cell-based, human; settings: Homo sapiens, CAPAN-1, 120 h, K-Ras G12V, 5-day treatment; read-out: Capan-1 Cell Viability IC50
Summary of the method: (§3)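 Five-day treatment of K-Ras mutant cells with directly dispensed compound; ATP-based luminescence endpoint. Percent of DMSO signal fit to four-parameter logistic curve.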

[16] = tested on: NCI-H358 cells (K-Ras G12C); test: CellTiter-Glo cell viability, NCI-H358; format: cell-based, human; settings: Homo sapiens, NCI-H358, 120 h, K-Ras G12C, 5-day treatment; read-out: H358 Cell Viability IC50
Summary of the method: as §3

Chain of KRAS G13C (P01116 other isoform, or with tags, fused parts or gaps G13C): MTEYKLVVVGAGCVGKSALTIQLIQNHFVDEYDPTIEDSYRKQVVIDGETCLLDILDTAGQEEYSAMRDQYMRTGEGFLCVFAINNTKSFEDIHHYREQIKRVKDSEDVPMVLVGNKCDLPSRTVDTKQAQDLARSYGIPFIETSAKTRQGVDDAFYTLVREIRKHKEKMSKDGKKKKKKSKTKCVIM
Chain of KRAS G13C (P62937 whole entry): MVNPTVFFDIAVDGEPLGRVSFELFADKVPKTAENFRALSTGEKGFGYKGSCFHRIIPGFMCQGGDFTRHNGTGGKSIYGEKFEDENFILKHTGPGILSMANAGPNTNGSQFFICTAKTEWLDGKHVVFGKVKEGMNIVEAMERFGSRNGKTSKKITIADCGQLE
Chain of NRAS Q61K (P01111 whole entry Q61K): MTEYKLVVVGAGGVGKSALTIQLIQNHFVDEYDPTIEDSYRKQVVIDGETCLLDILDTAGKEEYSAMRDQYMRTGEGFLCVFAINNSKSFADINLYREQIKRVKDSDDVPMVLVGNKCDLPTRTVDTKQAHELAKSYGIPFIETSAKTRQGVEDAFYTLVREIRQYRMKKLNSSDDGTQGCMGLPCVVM
Chain of NRAS Q61K (P62937 whole entry): as the sequence (P62937 whole entry) above
Chain of KRAS G12C (P01116-2 other isoform, or with tags, fused parts or gaps G12C): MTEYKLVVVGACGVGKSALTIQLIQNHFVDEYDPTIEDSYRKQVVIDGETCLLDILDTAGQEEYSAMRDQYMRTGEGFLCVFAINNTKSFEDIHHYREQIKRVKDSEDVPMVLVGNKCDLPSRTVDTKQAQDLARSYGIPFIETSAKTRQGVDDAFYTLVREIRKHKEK
Chain of KRAS G12C (P62937 whole entry): as the sequence (P62937 whole entry) above
Chain of KRAS G12S (P01116 other isoform, or with tags, fused parts or gaps G12S): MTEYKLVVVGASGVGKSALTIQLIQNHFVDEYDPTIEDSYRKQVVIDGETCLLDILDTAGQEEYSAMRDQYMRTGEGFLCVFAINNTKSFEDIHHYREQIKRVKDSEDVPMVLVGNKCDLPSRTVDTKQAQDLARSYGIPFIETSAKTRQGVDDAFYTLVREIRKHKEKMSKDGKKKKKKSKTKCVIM
Chain of KRAS G12S (P62937 whole entry): as the sequence (P62937 whole entry) above
Chain of K-Ras G12C(GMP-PNP) binding to BRAF RBD (P01116 other isoform, or with tags, fused parts or gaps G12C): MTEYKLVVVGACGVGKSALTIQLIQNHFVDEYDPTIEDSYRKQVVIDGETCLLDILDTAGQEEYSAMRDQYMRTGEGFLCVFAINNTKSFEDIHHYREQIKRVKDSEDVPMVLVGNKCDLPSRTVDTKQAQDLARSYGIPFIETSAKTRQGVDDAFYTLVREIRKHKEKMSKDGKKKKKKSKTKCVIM
Chain of K-Ras G12C(GMP-PNP) binding to BRAF RBD (P62937 whole entry): as the sequence (P62937 whole entry) above
Chain of NRAS Q61R (P01111 whole entry Q61R): as the sequence (P01111 whole entry Q61K) above, with K61R counted along it
Chain of NRAS Q61R (P62937 whole entry): as the sequence (P62937 whole entry) above
Chain of KRAS WT (P01116 other isoform, or with tags, fused parts or gaps): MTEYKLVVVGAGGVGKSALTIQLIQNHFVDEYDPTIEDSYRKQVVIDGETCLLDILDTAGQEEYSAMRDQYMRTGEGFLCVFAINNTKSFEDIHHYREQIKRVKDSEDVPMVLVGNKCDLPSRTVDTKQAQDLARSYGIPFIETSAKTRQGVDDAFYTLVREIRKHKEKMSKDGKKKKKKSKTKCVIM
Chain of KRAS WT (P62937 whole entry): as the sequence (P62937 whole entry) above
Chain of KRAS G12D (P01116 other isoform, or with tags, fused parts or gaps G12D): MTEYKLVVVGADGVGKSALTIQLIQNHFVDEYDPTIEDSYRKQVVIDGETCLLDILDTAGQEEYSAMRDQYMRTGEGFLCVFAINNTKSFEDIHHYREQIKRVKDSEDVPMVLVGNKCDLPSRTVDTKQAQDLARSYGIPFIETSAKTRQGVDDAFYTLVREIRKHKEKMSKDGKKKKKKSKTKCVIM
Chain of KRAS G12D (P62937 whole entry): as the sequence (P62937 whole entry) above
Chain of KRAS Q61H (P01116 other isoform, or with tags, fused parts or gaps Q61H): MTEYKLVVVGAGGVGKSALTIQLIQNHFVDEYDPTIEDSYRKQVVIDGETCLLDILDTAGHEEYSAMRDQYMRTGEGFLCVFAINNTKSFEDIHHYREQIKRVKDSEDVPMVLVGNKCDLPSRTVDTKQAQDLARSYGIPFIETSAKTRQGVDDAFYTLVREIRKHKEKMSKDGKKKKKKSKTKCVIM
Chain of KRAS Q61H (P62937 whole entry): as the sequence (P62937 whole entry) above
Chain of NRAS WT (P01111 whole entry): as the sequence (P01111 whole entry Q61K) above, with K61Q counted along it
Chain of NRAS WT (P62937 whole entry): as the sequence (P62937 whole entry) above
Chain of KRAS G13D (P01116 other isoform, or with tags, fused parts or gaps G13D): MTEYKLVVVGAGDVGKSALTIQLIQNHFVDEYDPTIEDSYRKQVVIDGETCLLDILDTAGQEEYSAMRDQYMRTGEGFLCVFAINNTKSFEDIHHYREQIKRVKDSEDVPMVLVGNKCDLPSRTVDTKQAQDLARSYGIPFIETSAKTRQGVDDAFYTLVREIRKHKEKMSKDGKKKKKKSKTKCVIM
Chain of KRAS G13D (P62937 whole entry): as the sequence (P62937 whole entry) above
Chain of KRAS G12V (P01116 other isoform, or with tags, fused parts or gaps G12V): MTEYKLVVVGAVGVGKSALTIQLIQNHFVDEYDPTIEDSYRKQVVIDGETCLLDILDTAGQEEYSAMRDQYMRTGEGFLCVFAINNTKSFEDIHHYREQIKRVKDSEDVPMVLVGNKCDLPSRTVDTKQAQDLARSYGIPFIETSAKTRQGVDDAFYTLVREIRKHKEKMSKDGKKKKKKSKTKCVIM
Chain of KRAS G12V (P62937 whole entry): as the sequence (P62937 whole entry) above
Chain of NRAS G12C (P01111 whole entry G12C): as the sequence (P01111 whole entry Q61K) above, with G12C, K61Q counted along it
Chain of NRAS G12C (P62937 whole entry): as the sequence (P62937 whole entry) above

| Compound | pIC50 [1] | pIC50 [2] | pIC50 [3] | pIC50 [4] | pIC50 [5] | pIC50 [6] | pIC50 [7] | pIC50 [8] | pIC50 [9] | pIC50 [10] | pIC50 [11] | pIC50 [12] | pIC50 [13] | pIC50 [14] | pIC50 [15] | pIC50 [16] |
| --- | --- | --- | --- | --- | --- | --- | --- | --- | --- | --- | --- | --- | --- | --- | --- | --- |
| CCn1c(-c2cccnc2[C@H](C)OC)c2c3cc(ccc31)-c1cc(O)cc(c1)C[C@H](NC(=O)C(C)C1CCOCC1)C(=O)N1CCC[C@H](N1)C(=O)OCC(C)(C)C2 (stereo partly drawn) [Compound A236] | < 5.00 | 6.00 to 7.00 | 7.00 to 8.00 | 6.00 to 7.00 and 5.00 to 6.00 | 5.00 to 6.00 and < 5.00 | 6.00 to 7.00 and 5.00 to 6.00 | 5.00 to 6.00 | 6.00 to 7.00 and 5.00 to 6.00 | 6.00 to 7.00 and 5.00 to 6.00 | 6.00 to 7.00 and 5.00 to 6.00 | 6.00 to 7.00 and 5.00 to 6.00 | 6.00 to 7.00 | 6.00 to 7.00 | < 5.00 | – | – |
| CCn1c(-c2cccnc2[C@H](C)OC)c2c3cc(ccc31)-c1csc(n1)C[C@H](NC(=O)[C@H](C(C)C)N(C)C(=O)N1CCC1C(=O)O)C(=O)N1CCC[C@H](N1)C(=O)OCC(C)(C)C2 (stereo partly drawn) [Compound A271] | < 5.00 | 5.00 to 6.00 | 6.00 to 7.00 | 5.00 to 6.00 | < 5.00 | < 5.00 | 5.00 to 6.00 | 5.00 to 6.00 | 5.00 to 6.00 | 5.00 to 6.00 | 5.00 to 6.00 | 5.00 to 6.00 | 6.00 to 7.00 | < 5.00 | < 5.00 | – |
| CCn1c(-c2cccnc2[C@H](C)OC)c2c3cc(ccc31)-c1csc(n1)C[C@H](NC(=O)[C@@H]1CCO1)C(=O)N1CCC[C@H](N1)C(=O)OCC(C)(C)C2 [Compound A359] | 7.00 to 8.00 | 6.00 to 7.00 | 6.00 to 7.00 | 6.00 to 7.00 | 5.00 to 6.00 | 5.00 to 6.00 | 5.00 to 6.00 | 6.00 to 7.00 | 5.00 to 6.00 | 5.00 to 6.00 | 6.00 to 7.00 | 6.00 to 7.00 | 6.00 to 7.00 | 7.00 to 8.00 | 5.00 to 6.00 | 5.00 to 6.00 |
| CCn1c(-c2cccnc2[C@H](C)OC)c2c3cc(ccc31)-c1csc(n1)C[C@H](NC(=O)[C@H](C(C)C)N(C)C(=O)N1CC[C@@]13CCCN(C)C3)C(=O)N1CCC[C@H](N1)C(=O)OCC(C)(C)C2 [Compound A468] | 6.00 to 7.00 | 6.00 to 7.00 | 7.00 to 8.00 | 6.00 to 7.00 | 6.00 to 7.00 | 6.00 to 7.00 | 6.00 to 7.00 | 6.00 to 7.00 | 6.00 to 7.00 | 6.00 to 7.00 | 5.00 to 6.00 | 6.00 to 7.00 | 6.00 to 7.00 | 7.00 to 8.00 | 6.00 to 7.00 | – |
| CCn1c(-c2cccnc2[C@H](C)OC)c2c3cc(ccc31)-c1csc(n1)C[C@H](NC(=O)[C@H](C(C)C)N(C)C(=O)N(C)C[C@H]1CCN1C)C(=O)N1CCC[C@H](N1)C(=O)OCC(C)(C)C2 [Compound A469] | 6.00 to 7.00 | 6.00 to 7.00 | 6.00 to 7.00 | 6.00 to 7.00 | 6.00 to 7.00 | 6.00 to 7.00 | 5.00 to 6.00 | 6.00 to 7.00 | 6.00 to 7.00 | 6.00 to 7.00 | 5.00 to 6.00 | 6.00 to 7.00 | 6.00 to 7.00 | 6.00 to 7.00 | 6.00 to 7.00 | – |
| CCn1c(-c2cccnc2[C@H](C)OC)c2c3cc(ccc31)-c1csc(n1)C[C@H](NC(=O)[C@H](C(C)C)N(C)C(=O)N(C)C[C@H]1CCCN1C)C(=O)N1CCC[C@H](N1)C(=O)OCC(C)(C)C2 [Compound A473] | 6.00 to 7.00 | 6.00 to 7.00 | 6.00 to 7.00 | 6.00 to 7.00 | 5.00 to 6.00 | 6.00 to 7.00 | 5.00 to 6.00 | 6.00 to 7.00 | 6.00 to 7.00 | 6.00 to 7.00 | 5.00 to 6.00 | 6.00 to 7.00 | 5.00 to 6.00 | 7.00 to 8.00 | 6.00 to 7.00 | – |
| CCn1c(-c2cccnc2[C@H](C)OC)c2c3cc(ccc31)-c1csc(n1)C[C@H](NC(=O)[C@H](C(C)C)N(C)C(=O)N1CC[C@H]1CN(C)C)C(=O)N1CCC[C@H](N1)C(=O)OCC(C)(C)C2 [Compound A508] | 6.00 to 7.00 | 6.00 to 7.00 | 6.00 to 7.00 | 6.00 to 7.00 | 5.00 to 6.00 | 5.00 to 6.00 | 5.00 to 6.00 | 6.00 to 7.00 | 6.00 to 7.00 | 6.00 to 7.00 | 5.00 to 6.00 | 6.00 to 7.00 | 5.00 to 6.00 | 6.00 to 7.00 | 6.00 to 7.00 | 6.00 to 7.00 |
| CCn1c(-c2cccnc2[C@H](C)OC)c2c3cc(ccc31)-c1csc(n1)C[C@H](NC(=O)[C@H](C(C)C)N(C)C(=O)N1CCN(C)[C@@H](c3ccccc3)C1)C(=O)N1CCC[C@H](N1)C(=O)OCC(C)(C)C2 [Compound A524] | 6.00 to 7.00 | 6.00 to 7.00 | 6.00 to 7.00 | 6.00 to 7.00 | 5.00 to 6.00 | 5.00 to 6.00 | 5.00 to 6.00 | 6.00 to 7.00 | 5.00 to 6.00 | 6.00 to 7.00 | 5.00 to 6.00 | 6.00 to 7.00 | 6.00 to 7.00 | 7.00 to 8.00 | 6.00 to 7.00 | 6.00 to 7.00 |
| CCn1c(-c2cccnc2[C@H](C)OC)c2c3cc(ccc31)-c1csc(n1)C[C@H](NC(=O)[C@H](C(C)C)N(C)C(=O)N(C)[C@H]1CCN(C)C1)C(=O)N1CCC[C@H](N1)C(=O)OCC(C)(C)C2 [Compound A563] | 6.00 to 7.00 | 6.00 to 7.00 | 7.00 to 8.00 | 6.00 to 7.00 | 6.00 to 7.00 | 6.00 to 7.00 | 6.00 to 7.00 | 6.00 to 7.00 | 6.00 to 7.00 | 6.00 to 7.00 | 5.00 to 6.00 | 6.00 to 7.00 | 6.00 to 7.00 | 6.00 to 7.00 | 7.00 to 8.00 | 7.00 to 8.00 |
| CCn1c(-c2cccnc2[C@H](C)OC)c2c3cc(ccc31)-c1csc(n1)C[C@H](NC(=O)[C@H](C(C)C)N(C)C(=O)N1C[C@H]3CCN(C)[C@H]3C1)C(=O)N1CCC[C@H](N1)C(=O)OCC(C)(C)C2 [Compound A568] | 7.00 to 8.00 | 6.00 to 7.00 | 6.00 to 7.00 | 6.00 to 7.00 | 6.00 to 7.00 | 6.00 to 7.00 | 6.00 to 7.00 | 6.00 to 7.00 | 6.00 to 7.00 | 6.00 to 7.00 | 6.00 to 7.00 | 6.00 to 7.00 | 6.00 to 7.00 | 7.00 to 8.00 | 6.00 to 7.00 | 7.00 to 8.00 |
| CCn1c(-c2cccnc2[C@H](C)OC)c2c3cc(ccc31)-c1cc(O)cc(c1)C[C@H](NC(=O)[C@H](C(C)C)N(C)C(=O)[C@@]1(F)CCN(C(=O)OC)C1)C(=O)N1CCC[C@H](N1)C(=O)OCC(C)(C)C2 [Compound A615] | – | 7.00 to 8.00 | 7.00 to 8.00 | 7.00 to 8.00 | 6.00 to 7.00 | 7.00 to 8.00 | 6.00 to 7.00 | 7.00 to 8.00 | 7.00 to 8.00 | 7.00 to 8.00 | 7.00 to 8.00 | 7.00 to 8.00 | 6.00 to 7.00 | – | 7.00 to 8.00 | 7.00 to 8.00 |
